Results: PMC4184702 (Pharmacology Research & Perspectives, 2014)
“Also recorded” adds a separate entry of the source.

Assays:
CYP2C19 = target: T1, CYP2C19 (Homo sapiens, UniProt P33261); assay: CYP2C19 inhibition, HLM, omeprazole substrate; assay type: in vitro ADME; settings: 1.0E-05 M
T1 construct: from tissue; host or cells: human liver microsomes (HLM)
Excerpt: Supplement prp20002-e00026-sd1.doc, table 3: Table 3.

GABAB = assay: PDSP primary binding, GABAB; settings: 10 µM, n = 4
Protocol: (§1) For experimental details, please refer to the Psychoactive Drug Screening Program (PDSP) web site http://pdsp.med.unc.edu/.
(§2) ^a The default concentration for primary binding experiments is 10 µM (n = 4). ^b Negative inhibition represents a stimulation of binding. ^c BZPR: Benzodiazepine Receptors (rat brain site). ^d DOR: Delta Opioid Receptor; KOR: Kappa Opioid Receptor; MOR: Mu Opioid Receptor. ^e DAT: Dopamine Transporter; NET: Norepinephrine Transporter; SERT: Serotonin Transporter. ^f NMDA: N-methyl-D-aspartate receptor.

CB2 = target: T2, CB2 (Homo sapiens, UniProt P34972); assay: PDSP primary binding, CB2; settings: n = 4, read-out: Inhibition (primary binding competition efficacy), CB2
T2 construct: purchased NIMH Psychoactive Drug Screening Program (PDSP)
Protocol: as §1, §2

Male C57 BL6 mice = assay: SmartCube test; assay type: in vivo, mouse
Protocol: Male C57 BL6 mice (Taconic Farms) were used in the SmartCube® assay (PsychoGenics Inc., Tarrytown, NY). Mice were received at 7 weeks old and group-housed in OptiMICE ventilated cages with four mice/cage. Mice were acclimated to the colony room for at least 1 week prior to the first injections. All animals were tested in SmartCube® at 8 10 weeks old.
To acquire initial in vivo evaluation of our nicotinic ligands for behavioral effects relevant to psychiatric diseases, we used SmartCube®, an automated system in which mouse behavior is captured by digital video using novel, proprietary hardware that presents multiple challenges in a single test session and is analyzed with computer algorithms. Digital videos of the subjects are processed with computer vision algorithms to extract more than 1400 dependent measures including frequency and duration of behavioral states such as grooming, rearing, etc., and many other features obtained during the test session. Using machine learning techniques chosen to best separate pharmacological effects of reference compounds, the behavioral signatures of the mutant mice are then assessed quantitatively.
The most dominant of the features collected that define the drug class signature are identified and ranked using complex proprietary bioinformatics algorithms. The outcome of a SmartCube® run is a set of more than 1400 features (behavioral parameters) that can be used for various analyses. Many of these features are correlated (e.g., rearing counts and supported rearing counts). Therefore, we form statistically independent combinations of the original features (further referred to as decorrelated features) that discriminate between the groups more effectively. Next, we apply a proprietary feature ranking algorithm to score each feature discrimination power to weight each feature change by its relevance. The data obtained in this way are used to define drug signatures for known reference compounds and to establish therapeutic class signatures against which a test sample can be compared. The neuropharmacological effects of a test compound can be predicted by similarity to major classes of compounds, such as antipsychotics, anxiolytics, and antidepressants (Roberds et al. [2011]).
Mice are taken in their home cage to the SmartCube® suite of experimental rooms where they remain until they are placed in the apparatus for a single testing session. A standard SmartCube® protocol runs for a single session (∼45 min). After the session mice are group-housed again and brought back to the colony room. Any abnormal behavior is noted. […] At least 12 mice were used in each treatment group.

α7* nAChR = settings: ref Yu et al. [2012], cited from earlier work
[1] = target: hERG (human ether-a-go-go-related gene) (Homo sapiens, UniProt Q12809); assay: hERG inhibition assay; settings: in words
α2A adrenergic receptor = target: T3, α2A adrenergic receptor (Homo sapiens, UniProt P08913); assay: PDSP primary binding, α2A; settings: n = 4, read-out: Inhibition (primary binding competition efficacy), α2A
T3 construct: purchased NIMH Psychoactive Drug Screening Program (PDSP)
Protocol: as §1, §2

T2 sequence (P34972 whole entry): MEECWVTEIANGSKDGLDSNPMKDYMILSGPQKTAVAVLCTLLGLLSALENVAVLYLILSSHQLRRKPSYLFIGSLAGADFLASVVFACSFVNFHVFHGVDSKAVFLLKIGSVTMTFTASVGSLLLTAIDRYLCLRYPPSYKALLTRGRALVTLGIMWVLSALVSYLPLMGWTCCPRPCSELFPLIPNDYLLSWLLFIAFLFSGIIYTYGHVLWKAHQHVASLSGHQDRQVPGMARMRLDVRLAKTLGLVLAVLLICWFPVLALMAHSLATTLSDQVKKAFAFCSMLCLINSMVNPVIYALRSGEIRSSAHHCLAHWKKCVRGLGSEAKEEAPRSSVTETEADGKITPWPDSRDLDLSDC
Sequence of hERG (human ether-a-go-go-related gene) (Q12809 whole entry): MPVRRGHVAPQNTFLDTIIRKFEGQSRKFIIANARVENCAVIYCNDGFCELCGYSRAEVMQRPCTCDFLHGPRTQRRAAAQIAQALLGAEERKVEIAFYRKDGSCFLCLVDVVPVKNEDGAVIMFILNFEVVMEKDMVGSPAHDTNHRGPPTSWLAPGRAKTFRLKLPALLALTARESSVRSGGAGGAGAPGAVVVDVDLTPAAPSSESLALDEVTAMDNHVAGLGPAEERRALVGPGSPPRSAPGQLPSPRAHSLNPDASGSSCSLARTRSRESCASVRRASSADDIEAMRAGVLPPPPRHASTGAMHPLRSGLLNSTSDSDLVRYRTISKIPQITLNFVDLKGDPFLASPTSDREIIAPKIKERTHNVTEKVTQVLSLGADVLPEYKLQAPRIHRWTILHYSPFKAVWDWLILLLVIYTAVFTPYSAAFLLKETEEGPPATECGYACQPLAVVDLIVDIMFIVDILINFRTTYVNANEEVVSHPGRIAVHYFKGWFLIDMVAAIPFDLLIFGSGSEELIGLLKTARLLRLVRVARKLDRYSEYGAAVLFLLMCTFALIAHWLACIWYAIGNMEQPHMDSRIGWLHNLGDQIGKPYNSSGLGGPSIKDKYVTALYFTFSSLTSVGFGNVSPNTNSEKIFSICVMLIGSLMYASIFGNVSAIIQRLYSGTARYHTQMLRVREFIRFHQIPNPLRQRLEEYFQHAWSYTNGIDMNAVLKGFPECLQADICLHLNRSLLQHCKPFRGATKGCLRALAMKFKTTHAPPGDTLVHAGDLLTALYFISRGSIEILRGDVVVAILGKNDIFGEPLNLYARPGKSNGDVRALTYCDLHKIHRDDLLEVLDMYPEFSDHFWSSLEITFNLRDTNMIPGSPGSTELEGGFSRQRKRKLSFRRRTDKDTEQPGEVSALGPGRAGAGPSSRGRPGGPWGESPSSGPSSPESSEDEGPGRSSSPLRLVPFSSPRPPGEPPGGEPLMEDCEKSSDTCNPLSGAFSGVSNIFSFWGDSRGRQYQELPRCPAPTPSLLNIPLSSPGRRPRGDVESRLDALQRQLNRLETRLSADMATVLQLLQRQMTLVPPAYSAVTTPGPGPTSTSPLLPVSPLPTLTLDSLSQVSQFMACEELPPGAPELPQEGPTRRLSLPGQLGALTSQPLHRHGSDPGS
T1 sequence (P33261 whole entry): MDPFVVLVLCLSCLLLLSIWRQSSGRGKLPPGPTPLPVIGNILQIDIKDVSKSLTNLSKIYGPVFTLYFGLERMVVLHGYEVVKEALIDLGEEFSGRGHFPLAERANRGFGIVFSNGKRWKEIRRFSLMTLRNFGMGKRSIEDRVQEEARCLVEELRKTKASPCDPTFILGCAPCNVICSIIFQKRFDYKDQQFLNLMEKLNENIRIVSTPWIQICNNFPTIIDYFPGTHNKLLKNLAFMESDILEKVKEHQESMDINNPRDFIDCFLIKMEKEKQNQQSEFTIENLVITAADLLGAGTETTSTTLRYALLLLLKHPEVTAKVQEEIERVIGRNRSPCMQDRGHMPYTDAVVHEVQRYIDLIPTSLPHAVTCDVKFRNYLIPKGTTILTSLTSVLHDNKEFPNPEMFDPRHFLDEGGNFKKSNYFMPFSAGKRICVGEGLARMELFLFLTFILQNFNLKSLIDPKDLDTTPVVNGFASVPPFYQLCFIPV
T3 sequence (P08913 whole entry): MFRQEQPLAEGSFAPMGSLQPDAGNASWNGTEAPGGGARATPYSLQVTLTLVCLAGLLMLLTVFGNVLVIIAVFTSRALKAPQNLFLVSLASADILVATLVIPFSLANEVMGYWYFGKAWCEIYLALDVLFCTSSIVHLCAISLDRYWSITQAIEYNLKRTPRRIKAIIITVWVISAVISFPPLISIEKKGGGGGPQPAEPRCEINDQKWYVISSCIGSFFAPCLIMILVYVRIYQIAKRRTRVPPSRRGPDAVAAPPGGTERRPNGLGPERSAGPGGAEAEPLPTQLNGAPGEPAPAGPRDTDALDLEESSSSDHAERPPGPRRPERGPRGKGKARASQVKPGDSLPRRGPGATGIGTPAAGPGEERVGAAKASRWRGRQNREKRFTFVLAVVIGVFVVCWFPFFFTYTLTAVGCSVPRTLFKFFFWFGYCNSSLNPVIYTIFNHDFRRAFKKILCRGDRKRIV

OCCc1cc(-c2cncc(OC[C@@H]3CCN3)c2)on1 [LF-3-88, 2-[5-[5-(2(S)-azetidinylmethoxyl)-3-pyridyl]-3-isoxazolyl]ethanol]
CYP2C19 Inhibition (CYP2C19): 10% | Inhibition (primary binding competition efficacy), GABAB (GABAB): 1.1% | inhibition at 10 µM (CB2): -7.3% | SmartCube antidepressant (green) component (Male C57 BL6 mice; 5 and 10 mg/kg, i.p.): antidepressive-like behavioral signatures; also recorded: potential antidepressive-like behavior; also recorded: most pronounced | SmartCube side effects (Male C57 BL6 mice; 5 and 10 mg/kg, i.p.): Minimal side effects | SmartCube side effect signature (Male C57 BL6 mice; both tested doses (5 and 10 mg/kg)): less than 10% | SmartCube behavioral signature (Male C57 BL6 mice; both tested doses, i.p., 15 min preinjection): robust CNS drug-like signatures | Ki (α7* nAChR; Figure 1): > 10 µM | Ki α7* (α7* nAChR; rat forebrain, class symbol): NA (NA: not active, defined as < 50% binding in the primary assay at 10 μmol/L) | profile in hERG inhibition assay [1]: favorable profile | inhibition at 10 µM (α2A adrenergic receptor): 23.1%
